We go through nine compounds from PMC3596083 (Beilstein Journal of Organic Chemistry, 2013).

Usually melting point stands for the temperature, or range, at which the solid turns liquid.

In data set [1] the target is T1, GABAA-receptors (α1-GFP + β2 + γ2Long) expressed in CHO cells (Homo sapiens, UniProt P14867+P47870).
T1 construct: expressed in transfected cells; host or cells: CHO-K1 (ATCC), transient transfection with Lipofectamine 2000
The experiment in a line: Whole-cell patch-clamp recordings with fast perfusion on CHO cells transiently expressing GABAA-receptors. It counts as cell-based. The conditions noted are these: for changes in the current: application of 10 mM. As for the experimental part:
(§1) The investigations in this study were performed by using a standard ^36Cl^−-flux assay in mouse brain synaptoneurosomes. […] Moreover, ^36Cl^−-flux assays were carried out by using a 15 s incubation time. […] The activity of synthesized compounds was tested by using CHO cells transiently expressing GABAA-receptors in the configuration (α1-GFP + β2 + γ2Long). To analyze the functional properties of the compounds, we performed monitoring of ionic currents using whole-cell patch-clamp techniques. […] Then we applied different concentrations of the studied compounds and estimated the minimal concentration that induced currents and, if possible, their EC50.
Cell culture and transient transfection
Chinese Hamster Ovary (CHO-K1) cells were obtained from the American Type Culture Collection (ATCC, Molsheim, France) and maintained as previously described. One day before the transfection, cells were plated on the coverslips (12–14 mm in diameter), which were placed inside 35 mm cell culture dishes with 2 mL of medium. CHO cells were transfected with a total 3 µg cDNA of α1-GFP + β2 + γ2Long (ratio 1:1:1) using the Lipofectamine 2000 transfection protocol (Life Technology, USA). Three hours after the initial exposure of the cells to the cDNAs, a fresh […] solution replaced the old one.
Electrophysiological recordings were performed from fluorescent cells 48–72 hours after […]
Electrophysiological recordings
Whole-cell recordings were conducted on CHO-K1 cells at room temperature (20–25 °C) using an EPC-9 amplifier (HEKA Elektronik, Germany). Cells were continuously superfused with external solution containing (mM): NaCl 140, CaCl2 2, KCl 2.8, MgCl2 1, HEPES 20, glucose 10; pH 7.3; 320–330 mOsm. The patch pipette solution contained (mM): CsCl 140, MgCl2 2, MgATP 2, NaGTP 0.4, HEPES/CsOH 10, BAPTA/KOH 20; pH 7.3; 290 mOsm.
Pipettes were pulled from borosilicate glass capillaries (Harvard Apparatus Ltd, USA) and had resistances of 5–8 MΩ.
For rapid replacement of solutions, a system of two parallel rectangular tubes, 100 µm in diameter, located at a distance of 40–50 µm from the tested cell, was used. The movement of tubes was controlled by a computer-driven fast exchange system (SF 77A Perfusion Fast-Step, Warner, USA). As measured by open tip electrode controls (1/10 NaCl), in this system a 20–80% solution exchange time was within 2–3 ms. Cells with a low input resistance (<150 MΩ) were excluded from analysis.
For quantitative estimations of agonist action, dose-response relationships were fitted by the […]
I = Imax / (1 + (EC50/ [C])n) where I is the current amplitude induced by the agonist at concentration [C], Imax is the maximum response of the cell, n is the Hill coefficient and EC50 is the concentration for which a half-maximum response is induced. Concentration-response relationships were constructed using at least four points. […]

Data set [2] has as its system GABAA-receptors. More on the design: method as in PMID 12113824. The conditions noted are these: cited from earlier work; for agonist character on GABAA-channels: chloride-flux assays on synaptoneurosomes.
The subject of data set [3] is GABAA-receptors. The experiment in a line: Standard 36Cl−-flux assay in mouse brain synaptoneurosomes (Carlier et al.). Type of data set: cell-based. Conditions: ratio of the EC50 values of ref 13. As for the experimental part:
as §1

Setting [4] is: whole-cell currents, mean ± error over x tested cells, read-out: EC50, mean.

SMILES strings stand for the structures. Several values for one entry are separate records, joined by “and”; a condition that tells them apart may be missing. Equal entries are not always repeated. Entries after “also recorded” stand apart in the source; their conditions may differ. Where two headings read alike, the source gives them in different places.

T1 sequence (P14867 28-456): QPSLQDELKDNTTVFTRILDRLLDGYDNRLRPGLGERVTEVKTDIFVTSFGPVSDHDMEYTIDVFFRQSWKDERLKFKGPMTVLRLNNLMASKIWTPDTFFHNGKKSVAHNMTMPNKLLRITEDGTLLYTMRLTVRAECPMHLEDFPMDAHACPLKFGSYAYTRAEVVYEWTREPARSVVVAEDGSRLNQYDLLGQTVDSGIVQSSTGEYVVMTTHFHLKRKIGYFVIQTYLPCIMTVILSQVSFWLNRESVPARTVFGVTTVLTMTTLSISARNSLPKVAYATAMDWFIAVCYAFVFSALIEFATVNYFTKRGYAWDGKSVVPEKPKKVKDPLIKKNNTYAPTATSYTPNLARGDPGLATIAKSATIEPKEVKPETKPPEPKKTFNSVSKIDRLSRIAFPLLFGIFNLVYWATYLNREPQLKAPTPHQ
T1 sequence (P47870 25-512 limits assumed): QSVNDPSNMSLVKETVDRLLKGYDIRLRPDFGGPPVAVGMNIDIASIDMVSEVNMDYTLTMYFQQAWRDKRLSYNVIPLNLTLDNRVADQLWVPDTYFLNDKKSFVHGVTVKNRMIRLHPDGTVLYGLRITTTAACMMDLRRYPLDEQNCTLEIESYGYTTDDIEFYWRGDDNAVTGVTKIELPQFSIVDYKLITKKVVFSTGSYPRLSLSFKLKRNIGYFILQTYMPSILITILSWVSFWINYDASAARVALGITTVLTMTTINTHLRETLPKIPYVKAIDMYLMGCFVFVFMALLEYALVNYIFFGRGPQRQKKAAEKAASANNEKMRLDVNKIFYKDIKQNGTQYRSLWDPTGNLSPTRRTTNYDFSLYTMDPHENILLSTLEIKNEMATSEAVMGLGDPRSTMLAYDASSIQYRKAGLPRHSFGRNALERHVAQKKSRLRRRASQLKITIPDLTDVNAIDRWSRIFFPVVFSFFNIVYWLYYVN
T1 sequence (P18507 40-475 partner): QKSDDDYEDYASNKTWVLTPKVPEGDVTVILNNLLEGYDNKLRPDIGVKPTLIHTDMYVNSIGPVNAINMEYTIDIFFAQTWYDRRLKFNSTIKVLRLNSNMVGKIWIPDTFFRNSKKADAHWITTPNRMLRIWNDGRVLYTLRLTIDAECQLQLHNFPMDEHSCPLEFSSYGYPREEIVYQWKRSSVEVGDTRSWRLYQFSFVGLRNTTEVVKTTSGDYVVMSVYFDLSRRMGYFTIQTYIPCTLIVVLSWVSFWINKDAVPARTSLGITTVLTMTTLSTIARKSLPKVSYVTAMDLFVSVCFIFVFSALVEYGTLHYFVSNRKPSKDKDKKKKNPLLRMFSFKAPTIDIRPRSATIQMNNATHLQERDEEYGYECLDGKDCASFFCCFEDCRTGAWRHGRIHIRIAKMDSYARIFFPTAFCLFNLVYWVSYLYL

In turn, `Cl.Cl.NCCCCCCNC(=O)CCCN` [7d] came in with a melting point of 147 to 150 °C. The activation threshold result in data set [1] is “about 100 µM”. For the same compound, in data set [1] (example concentration-response curve (Figures 2B, 5C), read-out: EC50 from the concentration dependence shown in the figure), the EC50 is ~5 mM and 5.1 mM. Further, the EC50 in data set [1] (setting [4]) stood at 5.25 ± 0.56 mM.

As to `NCCCC(=O)NCCCCCCCCNC(=O)CCCN` [4c], the “induction of whole-cell currents” value in data set [1] (concentration of 15 mM) is recorded as “not able to induce currents”. The “agonist character on GABAA-channels” value in the data set on GABAA-receptors [2] was “partial, full or superagonists”.

`Cl.Cl.NCCCCCCCCNC(=O)CCCN` [7e]: the melting point lay in the range of 136 to 138 °C. Moreover, the current amplitude in data set [1] (at 5 mM, x = 3) was 10–20 pA.

For `NCCCCNC(=O)CCCN` [7c], the EC50 in data set [1] (setting [4]) worked out at 1.75 ± 0.33 mM. In addition, the “agonist character on GABAA-channels” value in the data set with GABAA-receptors [2] was “partial, full or superagonists”.

With `Cl.Cl.NCCCNC(=O)CCCN` [7b], the melting point lay in the range of 140 to 142 °C. Besides, the “currents induced compared with GABA” value in data set [1] (at concentrations of 10 mM) is “comparable to those for GABA 30–100 µM”. Also, the EC50 in data set [1] (setting [4]) was 1.08 ± 0.14 mM.

For the compound `Cl.Cl.NCCCC(=O)NCc1ccc(CN)cc1`, the melting point was in the range of 251 to 253 °C.

With `NCCCC(=O)NCCCCNC(=O)CCCN` [4a], the “changes in the current” value in data set [1] (x = 4) is on record as 0 pA. Further, the “agonist character on GABAA-channels” value in the data set on GABAA-receptors [2] is “partial, full or superagonists”.

In the case of `NCCCC(=O)NCCCCCCNC(=O)CCCN` [4b], the “changes in the current” value in data set [1] (x = 4) was 0 pA. The “EC50 fold higher than for GABA” value in the data set on GABAA-receptors [3] was “more than 30 fold”. For the same compound, on GABAA-receptors [2] (36Cl−-flux, mouse brain synaptoneurosomes, 15 s incubation, read-out: EC50 (Cl− uptake)), the EC50 was 0.733 mM. For the same compound, in the data set with GABAA-receptors [2] (36Cl−-flux, mouse brain synaptoneurosomes), the “maximum Cl− uptake higher than that achieved by GABA” value is reported as “about 50%”. Further, the “agonist character on GABAA-channels” value with GABAA-receptors [2] is “superagonist; also recorded: partial, full or superagonists”.

`Cl.Cl.NCCCC(=O)NCCN` [7a]: the melting point lay in the range of 144 to 146 °C. Also, the current amplitude in data set [1] (at 2.6 mM, x = 4) is recorded as 10–30 pA. Besides, the “agonist character on GABAA-channels” value in the data set with GABAA-receptors [2] is recorded as “partial, full or superagonists”.
